According to US6958345B2, “2-hydroxymethylcyclopropylidene methylpurines and -pyrimidines as antiviral agents” (The Regents of the University of Michigan, priority 1997, dated 2005):
Like-named read-outs stand apart in the source and are kept apart here.

Tests used:
[1] = tested on: HCMV; experiment: HCMV plaque reduction assay in HFF cells; type: cell-based, Human CMV (HCMV); details: HFF cells; plaque reduction
Procedure: (§1) Cells and viruses. The routine growth and passage of KB cells was performed in monolayer cultures using minimal essential medium (MEM) with either Hanks salts [MEM(H)] or Earle salts [MEM(E)] supplemented with 10% calf serum. The sodium bicarbonate concentration was varied to meet the buffering capacity required. Cultures of diploid human foreskin fibroblasts (HFF) or MRC-5 cells were grown in medium consisting of MEM(E) with 10% fetal bovine serum. Cells were passaged at 1:2 to 1:10 dilutions according to conventional procedures by using 0.05% trypsin plus 0.02% EDTA in a HEPES buffered salt solution (HBS) (Shipman, C., Jr., Proc. Soc. Exp. Biol. 130:305-310 (1969)) as described previously. Turk, S. R., et al., Antimicrob. Agents Chemother. 31:544-550 (1987). HFF and MRC-5 cells were passaged only at 1:2 dilutions. CEM cells were maintained in suspension culture as detailed previously. Kucera, L. S., et al., AIDS Res. Human Retroviruses 9:307-314 (1993).
(§2) Virological procedures. Stock HCMV was prepared by infecting HFF cells at a multiplicity of infection (m.o.i.) of <0.01 plaque-forming units (p.f.u.) per cell. Cell growth medium was changed every four days until cytopathology was evident in all cells (approximately 21 days). Supernatant fluids were retained as the virus stock. High titer HSV-1 stocks were prepared by infecting KB cells at an m.o.i. of <0.1 as detailed previously. Turk, S. R., et al., Antimicrob. Agents Chemother. 31:544-550 (1987). Virus titers were determined using monolayer cultures of HFF cells for HCMV and monolayer cultures of BSC-1 cells for HSV-1 as described earlier. Prichard, M. N., et al., J. Virol. Methods 28:101-106 (1990). Briefly, HFF or BSC-1 cells were planted as described above in 96-well cluster dishes and incubated overnight at 37° C. in a humidified 3% CO297% air atmosphere. The next day cultures were inoculated with HCMV or HSV-1 and serially diluted 1:3 across the remaining eleven columns of the 96-well plate. Cultures were incubated at 37° C. for 2 hr to permit virus adsorption and then virus inoculum was replaced with 0.2 mL of fresh medium. Cultures were incubated for seven days for HCMV, two or three days for HSV-1, medium was removed, and the cell sheets were stained with 0.1% crystal violet in 20% methanol. Plaques were enumerated under 20-fold magnification in wells having the dilution which gave 5 to 20 plaques per well. Virus titers were calculated according to the following Formula: Titer (p.f.u./mL)=number of plaques×5×3^n; where n represents the nth dilution of the virus used to infect the well in which plaques were enumerated.
(a) HCMV. The effect of compounds on the replication of HCMV has been measured using a plaque reduction assay. HFF cells in 24-well cluster dishes were infected with approximately 100 p.f.u. of HCMV per cm^2 cell sheet using the procedures detailed above. Following virus adsorption, compounds dissolved in growth medium were added to duplicate wells in three to six selected concentrations. Following incubation at 37° C. for 7 to 10 days, cell sheets were fixed, stained with crystal violet and microscopic plaques enumerated as described above. Drug effects were calculated as a percentage of reduction in number of plaques in the presence of each drug concentration compared to the number observed in the absence of drug. Ganciclovir (DHPG) was used as a positive control in all experiments.
(§3) Data Analysis. Dose-response relationships were constructed by linearly regressing the percent inhibition of parameters derived in the preceding sections against log drug concentrations. Fifty-percent inhibitory (IC50) concentrations were calculated from the regression lines. Samples containing positive controls (acyclovir for HSV-1, ganciclovir for HCMV, and 2-acetylpyridine thiosemicarbazone for cytotoxicity) were used in all assays.

[2] = tested on: HCMV; experiment: HCMV yield reduction assay in HFF cells; type: cell-based, Human CMV (HCMV); details: footnote says IC90
Procedure: as §2
The effect of compounds on the replication of HCMV also was measured using a yield reduction assay. HFF cells were planted as described above in 96-well cluster dishes, incubated overnight, medium removed and the cultures were inoculated with HCMV at a m.o.i. of 0.5 to 1 p.f.u. per cell as reported elsewhere. After virus adsorption, inoculum was replaced with 0.2 mL of fresh medium containing test compounds. The first row of 12 wells was left undisturbed and served as virus controls. Each well in the second row received an additional 0.1 mL of medium with test compound at three times the desired final concentration. The contents of the 12 wells were mixed by repeated pipetting and then serially diluted 1:3 along the remaining wells. In this manner, six compounds could be tested in duplicate on a single plate with concentrations from 100 μM to 0.14 μM. Plates were incubated at 37° C. for seven days, subjected to one cycle of freezing and thawing; aliquots from each of the eight wells of a given column were transferred to the first column of a fresh 96-well monolayer culture of HFF cells. Contents were mixed and serially diluted 1:3 across the remaining eleven columns of the secondary plate. Each column of the original primary plate was diluted across a separate plate in this manner. Cultures were incubated, plaques were enumerated, and titers calculated as described above.
as §3

[3] = tested on: HSV-1; experiment: HSV-1 ELISA in BSC-1 cells; type: cell-based, herpes simplex 1 (HSV-1); details: BSC-1 cells; ELISA
Procedure: as §2
(b) HSV-1. An enzyme-linked immunosorbent assay (ELISA) was employed to detect HSV-1. 96-well cluster dishes were planted with BSC-1 cells at 10,000 cells per well, in a total volume of 200 μL per well of MEM(E) plus 10% calf serum. After overnight incubation at 37° C., drug and HSV-1 was added at the rate of 100 PFU/well. ELISA plates were blocked with 200 μL per well of 10% calf serum and 0.05% tween in HBS. After incubation for 30 minutes, the blocking agent was rinsed two times with HBS-T. A 1:400 dilution of AP conjugated rabbit anti-HSV-1 antibody in HBS-F was added. Plates were sealed with adhesive sheet, and incubated on rocker for one hour at 37° C. Plates were developed in the dark with 100 μL per well of substrate solution containing p-nitrophenyl phosphate. Plates were read at […]. Drug effects were calculated as a percentage of the reduction in virus in the presence of each drug concentration compared to the titer obtained in the absence of drug. Acyclovir was used as a positive control in all experiments.
as §3

[4] = tested on: HIV-1; experiment: HIV-1 reverse transcriptase assay in infected CEM cells; type: cell-based, strain IIIB of HIV-1; details: reverse transcriptase assay, CEM cells; low moi (footnote c of the 5th table); read-out: HIV-1, IC50
Procedure: (d) HIV-1. Reverse transcriptase (RT) was employed as a marker for HIV-1. This assay measured the presence of HIV in supernatants of CEM cells infected with strain IIIB of HIV-1 by the amount of RT activity. Cells were grown, infected, and incubated in the presence of seven concentrations (one-half log10 dilutions) beginning at 1 or 100 μM of compounds to be assayed. Procedures and the RT assay were performed as detailed previously. Kucera, L. S., et al., AIDS Res. Human Retroviruses 9:307-314 (1993); White, E. L., et al., Antiviral Res. 16:257-266 (1991).

[5] = tested on: HFF cells; experiment: Cytotoxicity in stationary HFF cells, microscopic inspection; type: cell-based, human
Procedure: as §1
(§4) Cytotoxicity assays. Two different assays were used to explore cytotoxicity of selected compounds as we have detailed previously. (i) Cytotoxicity produced in stationary HFF cells and in growing CEM cells was determined by microscopic inspection of cells used in plaque and RT assays which were not affected by the virus. Turk, S. R., et al., Antimicrob. Agents Chemother. 31:544-550 (1987). (ii) The effect of compounds during two population doublings of KB cells was determined by crystal violet staining and spectrophotometric quantitation of dye eluted from stained cells. Prichard, M. N., et al., Antimicrob. Agents Chemother. 35:1060-1065 (1991).
as §3

[6] = tested on: KB cells; experiment: Cytotoxicity in KB cells, growth over two population doublings; type: cell-based
Procedure: as §1, §4, §3

[7] = tested on: CEM cells; experiment: Cytotoxicity in growing CEM cells, microscopic inspection; type: cell-based
Procedure: as §1, §4, §3

[8] = Toxicity controls: uninfected mice given test compound; type: in vivo; details: 5.6, 16.7 and 50 mg/kg i.p. once daily for five days
Procedure: (§5) Compounds 1 (B=adenin-N^9-yl and guanin-N^9-yl) were evaluated in mice infected with murine cytomegalovirus (MCMV). Mice were infected intraperitonealy with sufficient MCMV to produce 90 to 100% mortality. Compounds were administered once daily for five days at doses of 5.6, 16.7 and 50 mg/kg by intraperitoneal injection in a 0.4% suspension of carboxymethylcellulose. Ganciclovir was administered in sterile water at the same doses as a positive control drug. All compounds were administered to separate groups of 15 mice each at 6, 24, and 48 hours after infection with MCMV. Groups of 10 uninfected mice also received test compounds as toxicity controls at the doses listed above.

[9] = tested on: murine cytomegalovirus (MCMV); experiment: Mortality of mice infected with murine cytomegalovirus; type: in vivo; details: 5.6 mg/kg
Procedure: as §5

Compound	IC50 [1] [µM]	IC90 [2] [µM]	IC50 [3] [µM]	IC50 [4] [µM]	IC50 ([5]; stationary HFF cells, visual, read-out: Cytotoxicity IC50 HFF (visual)) [µM]	IC50 ([6]; KB cell growth, read-out: Cytotoxicity IC50 KB (growth)) [µM]	IC50 ([7]; growing CEM cells, visual, read-out: Cytotoxicity IC50 CEM (visual)) [µM]	IC50 [5] [µM]	IC50 [6] [µM]	IC50 [7] [µM]	deaths in uninfected mice that received only drug [8]	efficacy against MCMV mortality compared with compound 1 (B=guanin-N^9-yl) [9]
COC(=O)[C@H](C)NP(=O)(OCC1CC1=Cn1cnc2c(N)ncnc21)Oc1ccccc1 (stereo partly drawn) [3 (B = adenine), Example 13, Methyl Phenylphosphoro-L-alaninate of syn-N^9-(2-Hydroxymethylcyclopropylidenemethyl)adenine]	0.14	0.21	2.5	< 0.14	2.5	0.5	1.1					
Nc1nc(Cl)c2ncn(C=C3CC3CO)c2n1 (stereo not drawn) [syn-2-amino-6-chloro-N^9-(2-hydroxymethylcyclopropylidenemethyl)purine]	5	0.8	40					> 100	> 100			
Nc1nc(N)c2ncn(C=C3CC3CO)c2n1 (stereo not drawn) [1 (B = 2,6-diaminopurine), Example 9, syn-2,6-Diamino-N^9-(2-hydroxymethylcyclopropylidenemethyl)purine]	15	18	> 100					> 100	> 100	> 100		
Nc1ccn(C=C2CC2CO)c(=O)n1 (stereo not drawn) [1 (B = cytosine), Example 12, syn-N^1-(2-Hydroxymethylcyclopropylidenemethyl)cytosine]	28	16	> 100					> 100	> 100	> 100		
Nc1nc2c(ncn2C=C2CC2CO)c(=O)[nH]1 (stereo not drawn) [1 (B = guanine), Example 8, syn-N^9-(2-hydroxymethylcyclopropylidenemethyl)guanine]	2	1.8		1.3				> 100	> 100	> 100	No deaths were observed	
Nc1nc(NC2CC2)c2ncn(C=C3CC3CO)c2n1 (stereo not drawn) [syn-2-Amino-6-cyclopropylamino-N^9-(2-hydroxymethylcyclopropylidenemethyl)purine]	0.4	1	20					> 100	> 100	> 100		
Nc1nc(O)c2ncn(COC(CO)CO)c2n1 [ganciclovir, reference compound]												somewhat more effective
